{"source": "patent US11092596B2", "about": "“Material and method to screen proteasome stimulators” (Purdue Research Foundation, priority 2017, dated 2021)", "key": {"Suc-LLVY-AMC": {"system": "T1, Suc-LLVY-AMC", "T1 sequence": "LLVY"}, "[1]": {"system": "T2, chymotrypsin-like FRET reporter (CT-L FRET), Lys(Y1)-Met-Ser-Gly-Phe-Ala-Ala-Thr-Ala-Glu(Y2)-Gly", "T2 sequence": "KMSGFAATAEG"}, "[2]": {"molecular_target": "T3, chymotrypsin-like activity of the 20S CP (Homo sapiens, UniProt P28074)", "T3 construct": "5 μL purified 20S proteasome (90 nM in Tris-HCl) was added to the control and test wells", "experiment": "Kinetic assay, CT-L FRET reporter hydrolysis by purified 20S CP", "format": "biochemical", "conditions": "for increase in the rate of hydrolysis (CT-L FRET reporter): 9 nM 20S CP, vs basal", "experimental": "(§1) Plate preparation for the kinetic assay was performed similarly for all assays. All 96-well plates contained the following in triplicate: reporter background, containing reporter only, and control wells, containing reporter and purified 20S CP. It was determined that each well will contain a total volume of 50 μL. To each well was added 40 μL of the coumarin or FRET reporters (in Tris-HCl, 50 mM, pH 7.7). To the reporter background wells was added 7.5 μL Tris-HCl and 2.5 μL of the solvent in which the compound of interest was dissolved or diluted. Similarly, to the control wells was added 2.5 μL Tris-HCl and 2.5 μL of the solvent in which the compound of interest was dissolved or diluted. To the test wells was added 2.5 μL Tris-HCl and 2.5 μL of the compound of interest at a predetermined concentration. Immediately prior to running the assay on the Synergy 4 Plate Reader, 5 μL purified 20S proteasome (90 nM in Tris-HCl) was added to the control and test wells.\n(§2) The Synergy 4 Plate Reader was set to heat the plate at 37° C. and read fluorescence every 2 min over a 40 min period. The excitation and emission wavelengths were set according to the reporter. For the FRET reporter, the excitation and emission wavelengths were set to 335 nm and 493 nm, respectively, corresponding to the excitation and emission wavelengths of the Edans fluorophore. For the coumarin reporter, the excitation and emission wavelengths were set to 380 nm and 460 nm, respectively.\n(§3) AM-404 was used as a positive control compound to test the dose-response screening capabilities of the CT-L FRET reporter. The following concentrations of AM-404 were tested in triplicate: 50, 25, and 12.5 μM. To each well was added 40 μL 20 μM CT-L FRET (in Tris-HCl, 50 mM, pH 7.7). To the reporter background wells was added 5 μL Tris-HCl and 5 μL 1:1 Tris-HCl:DMSO. Similarly, to the control wells was added 5 μL 1:1 Tris-HCl:DMSO. To the 50 μM AM-404 test wells was added 2.5 μL Tris-HCl and 2.5 μL 1000 μM AM-404 in DMSO. To the 25 μM AM-404 test wells was added 2.5 μL Tris-HCl and 2.5 μL 500 μM AM-404 in DMSO. To the 12.5 μM AM-404 test wells was added 2.5 μL Tris-HCl and 2.5 μL 250 μM AM-404 in DMSO. Immediately prior to running the assay on the Synergy 4 Plate Reader, 5 μL purified 20S proteasome (90 nM in Tris-HCl) was added to the control and test wells. The assay was performed using the Synergy 4 plate reader as described for the general screening kinetic assay procedure.\nas §3, with “Fenofibrate was” for “AM-404 was”, “a negative” for “a positive”, “of fenofibrate” for “of AM-404”, “μM fenofibrate” for “μM AM-404”, “procedure. […]” for “procedure.”"}, "20S CP": {"molecular_target": "20S CP (Homo sapiens, UniProt P28074)", "conditions": "in cellulo, Suc-LLVY-AMC reporter, previously reported; read-out: EC50 as 20S CP stimulator; cited from earlier work"}, "26S proteasome": {"system": "26S proteasome", "conditions": "at concentrations as low as 5 μM; cited from earlier work"}, "[3]": {"molecular_target": "T4, trypsin-like activity of the 20S CP (Homo sapiens, UniProt Q99436)", "experiment": "Kinetic assay, Bz-VGR-AMC reporter hydrolysis by purified 20S CP", "format": "biochemical", "conditions": "500 μM SDS", "experimental": "as §1, with “To the test wells was added 2.5 μL Tris-HCl and 2.5 μL of the compound of interest at a predetermined concentration.” left out\nThe Synergy 4 Plate Reader was set to heat the plate at 37° C. and read fluorescence every 2 min over a 40 min period. […]\n(§4) Stimulation of the 20S proteasome with SDS was determined using both the coumarin and FRET reporters for the chymotrypsin-like and trypsin-like activities of the 20S CP. […] Immediately prior to running the assay on the Synergy 4 Plate Reader, 5 μL purified 20S proteasome (90 nM in Tris-HCl) was added to the control and test wells. […]"}, "[4]": {"molecular_target": "T4, trypsin-like activity of the 20S CP", "experiment": "Kinetic assay, T-L FRET reporter hydrolysis by purified 20S CP", "format": "biochemical", "conditions": "500 μM SDS", "experimental": "as §1\nas §2, with “For the coumarin reporter, the excitation and emission wavelengths were set to 380 nm and 460 nm, respectively.” left out\nas §4, with “wells. The assay was performed using the Synergy 4 plate reader as described for the general screening kinetic assay procedure.” for “wells.”\nTo each well was added 40 μL 20 μM T-L FRET reporter (in Tris-HCl, 50 mM, pH 7.7). […] Immediately prior to running the assay on the Synergy 4 Plate Reader, 5 μL purified 20S proteasome (90 nM in Tris-HCl) was added to the control and test wells."}, "[5]": {"molecular_target": "T3, chymotrypsin-like activity of the 20S CP", "experiment": "Kinetic assay, Suc-LLVY-AMC reporter hydrolysis by purified 20S CP", "format": "biochemical", "experimental": "as §1\nas §2, with “For the coumarin reporter, the excitation and emission wavelengths were set to 380 nm and 460 nm, respectively.” left out\nSodium dodecyl sulfate (SDS) was used to test the effect stimulating the 20S proteasome has on the hydrolysis of the FRET reporters. The appropriate concentration of SDS to use in the kinetic assay was determined using the small chymotrypsin-like activity reporter, Suc-LLVY-AMC (SEQ ID NO: 4). […] In triplicate, the following final concentrations of SDS were analyzed for the effect each has on the activity of the 20S proteasome: 4000 μM, 2000 μM, 1000 μM, 500 μM, 250 μM, 125 μM, and 0 μM, the basal activity of the 20S proteasome. […] Immediately prior to reading the plate with the Synergy 4 plate reader, 5 μL purified 20S proteasome (90 nM in Tris-HCl) was added to the wells at a final concentration of 9 nM per well.\nThe Synergy 4 Plate Reader was set to heat the plate at 37° C. and read fluorescence every 2 min over a 1 hr period. […] The resulting data in relative fluorescence units (RFU) was analyzed using GraphPad Prism and was plotted against time in minutes. […] Based on the resulting curve and the hyperbolic curve obtained using 1000 μM SDS (FIG. 11b), it was determined that 500 μM SDS was the appropriate concentration to use to test the effect stimulating the 20S proteasome has on the hydrolysis of the FRET reporters.\nStimulation of the 20S proteasome with SDS was determined using both the coumarin and FRET reporters for the chymotrypsin-like and trypsin-like activities of the 20S CP. […]"}}, "note": "Where a name gives a salt, the structure may show the parent alone.", "data": [{"compound": "20S core particle (20S CP) of the proteasome", "values": [{"measurement": "rate of hydrolysis (average basal level, no stimulator)", "setting": "Suc-LLVY-AMC", "value": "60 ΔRFU/min"}, {"measurement": "Mean Signal (Rate), Basal (background) activity of the 20S CP", "setting": "[1]", "value": 5.3}, {"measurement": "rate of hydrolysis (average basal level, no stimulator)", "setting": "[1]", "value": "2.9 ΔRFU/min"}]}, {"compound": "CCCCC/C=C\\C/C=C\\C/C=C\\C/C=C\\CCCC(=O)Nc1ccc(O)cc1", "note": "[AM-404]", "values": [{"measurement": "increase in the rate of hydrolysis (CT-L FRET reporter)", "setting": "[2]; 12.5 μM compound (lowest concentration tested)", "value": 4, "unit": "fold"}, {"measurement": "increase in the rate of hydrolysis (CT-L FRET reporter)", "setting": "[2]; 25.0 μM compound", "value": 5, "unit": "fold"}, {"measurement": "increase in the rate of hydrolysis (CT-L FRET reporter)", "setting": "[2]; 50.0 μM compound", "value": 7, "unit": "fold"}, {"measurement": "Mean Signal (Rate)", "setting": "[2]; CT-L FRET reporter, 20S CP, basal 5.300", "value": 40.46}, {"measurement": "dose dependence of 20S CP stimulation", "setting": "[2]; CT-L FRET reporter, dose response curve", "value": "dose-dependent"}, {"measurement": "EC50", "setting": "20S CP", "value": "~32", "unit": "µM"}]}, {"compound": "O=C(O)c1cc(O)c2c(c1)[C@@H]([C@H]1c3cc(C(=O)O)cc(O)c3C(=O)c3c(O[C@@H]4O[C@H](CO)[C@@H](O)[C@H](O)[C@H]4O)cccc31)c1cccc(O[C@@H]3O[C@H](CO)[C@@H](O)[C@H](O)[C@H]3O)c1C2=O", "note": "[Compound 4, Sennoside B]", "values": [{"measurement": "validation of primary hits in triplicate", "setting": "[2]; 25 μM, newly purchased compound, CT-L FRET reporter", "value": "did not perform as it had in the initial screen"}]}, {"compound": "CN(C)C(=O)C(CCN1CCC(O)(c2ccc(Cl)cc2)CC1)(c1ccccc1)c1ccccc1", "note": "[Loperamide HCl]", "values": [{"measurement": "stimulation of the 26S proteasome", "setting": "26S proteasome", "value": "stimulate the 26S proteasome"}]}, {"compound": "CCCCCCCCCCCCOS(=O)(=O)[O-].[Na+]", "note": "[SDS, sodium dodecyl sulfate]", "values": [{"measurement": "increase in the rate, CT-L FRET reporter", "setting": "[2]; 500 μM SDS vs basal", "value": 8.3, "unit": "fold"}, {"measurement": "average rate of hydrolysis, CT-L FRET reporter", "setting": "[2]; 500 μM SDS, basal 2.9 ΔRFU/min", "value": "24 ΔRFU/min"}, {"measurement": "increase in the rate of hydrolysis of Bz-VGR-AMC compared to basal activity", "setting": "[3]", "value": 2, "unit": "fold"}, {"measurement": "increase in the rate of hydrolysis of T-L FRET reporter compared to basal activity", "setting": "[4]", "value": 5, "unit": "fold"}, {"measurement": "increase in the rate, Suc-LLVY-AMC reporter", "setting": "[5]; 500 μM SDS vs basal", "value": 2.4, "unit": "fold"}, {"measurement": "average rate of hydrolysis, Suc-LLVY-AMC reporter", "setting": "[5]; 500 μM SDS, basal 60 ΔRFU/min", "value": "145 ΔRFU/min"}]}, {"compound": "CC(C)C[C@H](NC(=O)[C@H](Cc1ccccc1)NC(=O)c1cnccn1)B(O)O", "note": "[bortezomib]", "values": [{"measurement": "decrease in the rate of hydrolysis of the CT-L FRET reporter", "setting": "[2]; 2 μM bortezomib", "value": 40, "unit": "%"}]}]}
